Patent US8735620B2, “Processes for preparing (E)-styrylbenzylsulfone compounds and uses thereof for treating proliferative disorders” (priority 2008, dated 2014)

Tested on: HUVEC
Experiment: PARP cleavage western blot, normal cells
Assay type: cell-based, human
Conditions: HUVEC, 24, 48 and 72 h
Description: FIG. 2 Preferential tumor cell killing activity of 6aa. A. Cell Cycle analyses. Normal (HUVEC) and tumor cells (DU145) were treated with 20 nM concentration of 6aa and incubated in medium containing 10% fetal bovine serum. At 24 hr intervals, the cells were fixed, stained with propidium iodide and analyzed for their DNA content by flow Cytometry. B. Induction of apoptosis in normal (HUVEC) and tumor cells (DU145) was assessed by western blot analysis of cell lysates treated with 6aa for 24, 48 and 72 h. The Western blots were probed with anti-PARP antibodies to assess the cleavage of the protein.
[…] were plated at a density of 3.0×10^6 cells per 150 mm^2 plate and treated 24 h later with either DMSO or 6aa. The cells were collected at the indicated time points and cell pellets were frozen. The frozen cell pellets were lysed in 1% NP40/PBS lysis buffer containing protease inhibitors. Equal amounts of total cellular protein was then resolved on a 10%-SDS-polyacrylamide gel. The gels were transferred onto nitrocellulose paper (S/S), hybridized with anti-PARP antibodies (BD) and developed using ECL (Perkin-Elmer, MA) solution.

COc1cc(OC)c(/C=C/S(=O)(=O)Cc2ccc(OC)c(O)c2)c(OC)c1 [6aa, (E)-2,4,6-Trimethoxystyryl-3-Hydroxy-4-Methoxybenzyl Sulfone]
PARP cleavage: No PARP cleavage was observed
